Test results taken from US20180021315A1, “METHODS OF TREATING HEARING DISORDERS” (Wayne State University, priority 2016, published 2018).
“Also recorded” adds a separate entry of the source.

Assays:
DCN, IC and AC neurons = experiment: Neurophysiological recordings of DCN, IC and AC after blast exposure; assay type: in vivo, rat; conditions: blast-exposed rats, 56 mg/kg i.p.
Procedure: Rats were exposed or sham-exposed to a blast shockwave. To determine whether TNF-α is involved in blast-induced tinnitus, the rats were injected once daily for 5 days with 3,6′-dithiothalidomide starting 7 days after blast exposure. Behavioral testing and ABR recordings started 1 day after drug injection and lasted for three weeks.
Neurophysiological recordings of the left DCN, right IC and right AC were performed 3 weeks after drug or vehicle injection. Each rat was anesthetized with a mixture of air (1 liter/min) and isoflurane (5% v/v) and then secured in a stereotaxic frame with hollow ear bars (model 1530; David Kopf Instruments, Tujunga, Calif.). A mixture of air (1 liter/min) and isoflurane (1.75-2.5% v/v) was used to maintain anesthesia during surgery and recordings. In order to maintain the rat's body temperature at 37° C., a thermostat-controlled blanket (Harvard Apparatus, Holliston, Mass.) was used during the procedure. For electrophysiological recording, electrode arrays were inserted into the DCN, IC, and AC. Prior to insertion, the electrode probe was dipped into a 3% DiI solution (1,10-dioctadecyl-3,3,30,30-tetramethylindocarbocyanine perchlorate; Invitrogen, Carlsbad, Calif.) prepared with dimethylformamide to label the electrode insertion tracks. By using a micromanipulator (model 1460-61; David Kopf Instruments), an eight-shank, 32-channel electrode probe (NeuroNexus Technologies, Ann Arbor, Mich.) was inserted into the DCN and the probe was inserted into a depth of […] below the DCN surface, corresponding to the fusiform cell layer. For the IC, a two-shank 32-Channel (NeuroNexus) probe was inserted 20° off of the sagittal plane and 30° off of the horizontal plane through the occipital cortex into the IC. To implant in the AC, a 32 (4×8) microwire array was implanted 2.7 to 5.8 mm posterior to the bregma, and ˜0.8-1.0 mm from the cortical surface. After probe placement, the brain was covered with agarose to avoid tissue swelling and drying. The probe connector was connected to a real-time signal processing system (RZ2, TDT) with a 25 kHz sampling rate and a 100-3000 Hz bandpass filter. Spontaneous activity, frequency tuning curves (FTCs), and acoustic stimulation with tone and noise bursts (BBN) was recorded. Spontaneous single- and multi-unit spikes were recorded twice; one 5 min prior to and one 5 min after frequency tuning curve (FTC) construction. Each spontaneous recording period lasted 5 min. FTCs were obtained to determine the frequency representation of each implanted electrode in the DCN, IC and AC using tone sweeps (50 ms in duration, 2-44 kHz, incremental steps of 2 dB, sound level range of 0-85 dB SPL).

TNF-α = experiment: Blast-induced TNF-α protein levels in auditory brain regions (ELISA and Western blot); assay type: in vivo, rat
Procedure: The therapeutic drug used was 3,6′-dithiothalidomide, which was synthesized according to a published procedure to greater than 99.8% chemical purity (Baratz et al., 2011; W. Luo et al., 2008). The drug was freshly prepared prior to each study. 3,6′-dithiothalidomide was prepared as a suspension in 1% carboxymethyl cellulose to provide a final concentration of 28 or 56 mg/kg (0.1 mL/10 g and 0.1 mL/100 g body weight injection in mice and rats, respectively), and was administered intraperitoneally (i.p.). These concentrations of 3,6′-dithiothalidomide are equimolar to 25 and 50 mg/kg of thalidomide.
Each of the rats was subjected to blast exposure in the left ear using a shock tube (ORA Inc.) located at the Wayne State University Bioengineering Center. The blast exposure of each rat was performed under anesthesia with a mixture of air (1 liter/min) and isoflurane (5% v/v). The rat was placed on supportive netting with a metal surround and secured on a pole with its head facing the oncoming shockwave. During blast exposure, the rat's right ear was occluded with a silicone earplug (Mack's; McKeon Products, Warren, Mich.), followed by application of mineral oil to seal any remaining openings. The average energy under 10 kHz measured at 22 psi was equivalent to 150 kPa or 197.5 dB SPL. After blast exposure, each rat was transferred to a polycarbonate cage.
Two exposed groups received either 56 mg/kg 3,6′-dithiothalidomide i.p. or vehicle for two days starting on the same day of the blast exposure. Another two exposed groups received 56 mg/kg 3,6′-dithiothalidomide i.p. or vehicle treatment for five days starting on the day of the blast exposure. Two more exposed groups received 56 mg/kg 3,6′-dithiothalidomide i.p. or vehicle treatment for five days starting on the fifth day after blast exposure. On the last day of the drug/vehicle injection, brain samples were collected. ELISA and Western blot was performed to determine the effects of blast and 3,6′-dithiothalidomide treatment on TNF-α protein levels.

[1] = system: ionized calcium-binding adapter molecule 1 (Iba-1); experiment: Iba-1 immunostaining densitometry of microglia after blast; assay type: in vivo, rat; conditions: immunostained microglia, FIG. 23A
Text: FIGS. 23A and 23B depict densitometry measurements of ionized calcium-binding adapter molecule 1 (Iba-1) and TNF-α expression, respectively, as observed by fluorescence microscopy of immunohistochemistry-stained microglia. […] Error bars in FIGS. 23A-23B depict standard deviation.

C75BL6 mice = experiment: Noise-induced tinnitus, gap detection, 3,6′-dithiothalidomide; assay type: in vivo, mouse
Procedure: Tinnitus was assessed using the gap detection paradigm.
A group of C75BL6 mice underwent 4 days of gap detection testing. On the fifth day, the mice were exposed to 123-dB noise in their left ears for two hours, which was followed immediately by the administration of 3,6′-dithiothalidomide at a dose of 28 mg/kg. The drug was administered daily for five days. On day 10 post noise exposure, gap detection tests were resumed to test the animals' performance. Impaired gap detection compared to prenoise exposure performance is behavioral evidence of tinnitus.

AC pyramidal neurons = experiment: Patch clamp recording of miniature synaptic currents in AC slices after blast exposure; assay type: in vivo, rat
Procedure: Two groups of 7 rats each were exposed to blast shockwaves as described above, and an additional group of 7 rats was sham-exposed. One of the exposed groups was administered 3,6′-dithiothalidomide for five days starting on the day of the exposure, and the other exposed group was administered vehicle. Brain slides were prepared from the AC of the rats 10-20 days after the blast exposure. Pyramidal neurons were recorded using the patch clamp method. Miniature synaptic currents were recorded to assess the functional states of the excitatory and inhibitory synaptic transmission. Neurons were filled with biocytin, which was stained with immunocytochemistry to reveal the morphology of the recorded neurons.

O=C1NC(=S)CCC1N1C(=O)c2ccccc2C1=S (stereo not drawn) [3,6′-dithiothalidomide]
neuronal firing synchrony (correlogram ratio) (DCN, IC and AC neurons; DCN, IC and AC, FIGS. 22A-22C): significantly reduced neuronal firing synchrony | spontaneous bursting rate in the DCN (DCN, IC and AC neurons; FIG. 20A): reduced bursting rates in blast-exposed animals to the control level | spontaneous firing rate in the DCN (DCN, IC and AC neurons; FIG. 20B): reduced firing rates in blast-exposed animals to the control level | spontaneous bursting rate in the AC (DCN, IC and AC neurons; FIG. 21A): reduced bursting rates in blast-exposed animals relative to vehicle | spontaneous firing rate in the AC (DCN, IC and AC neurons; FIG. 21B): reduced firing rates in blast-exposed animals to the control level | TNF-α protein levels in AC, ELISA (TNF-α; blast-exposed rat AC, 56 mg/kg i.p., FIG. 10): reduced TNF-α protein levels | TNF-α protein levels in DCN, ELISA (TNF-α; blast-exposed rat DCN, 56 mg/kg i.p., FIG. 11): reduced TNF-α protein levels | TNF-α protein levels in IC, ELISA (TNF-α; blast-exposed rat IC, 56 mg/kg i.p., FIG. 12): reduced TNF-α protein levels | statistical significance of the reduction of TNF-α protein levels in IC (TNF-α; blast-exposed rat IC, FIG. 12): did not achieve statistical significance | translational/posttranslational increase in the TNF-α protein level (TNF-α; blast-exposed rats): cannot block such an increase | reduction in TNF-α protein levels in DCN vs corresponding vehicle group (TNF-α; group treated five days starting on the day of blast (5 Days), P<0.05): statistical significance | reduction in TNF-α protein levels in AC vs corresponding vehicle group (TNF-α; group treated five days starting on the fifth day after blast (10 Days), P<0.05): statistical significance | statistical significance of the reduction of TNF-α protein levels in AC and DCN (TNF-α; rat AC and DCN, vs vehicle, P<0.05): reached statistical significance; also recorded: significant reduction | TNF-α protein levels after blast exposure (TNF-α; rat AI, DCN and IC, 56 mg/kg i.p., 2, 5 and 10 days after blast, FIGS. 10-13): partially reduced TNF-α protein levels | blast-induced microglial activation (Iba-I staining) [1]: not blocked | noise-induced tinnitus (startle-response ratio) (C75BL6 mice; 28 mg/kg, FIG. 25): prevents noise-induced tinnitus in mice | gap detection performance after noise exposure (C75BL6 mice; 123-dB noise 2 h, 28 mg/kg daily for five days, tested day 10 post exposure): not significantly altered | cumulative distribution of mIPSC frequency (blast-induced shift to lower frequencies) (AC pyramidal neurons; 56 mg/kg i.p., Kolmogorov-Smirnov Test p<0.001, FIG. 19): reversed this effect | mIPSCs in recording traces of auditory cortical neurons (AC pyramidal neurons; blast-exposed rats, drug for five days from day of exposure, vs vehicle-treated, FIG. 17C): less reduction in mIPSCs | mIPSC frequency (blast-induced reduction) (AC pyramidal neurons; blast-exposed rats, 56 mg/kg i.p. daily, FIG. 18B): completely abolished the blast-induced reduction | mIPSC amplitude (AC pyramidal neurons; blast-exposed rats, 56 mg/kg i.p., relative to sham-blast controls, FIG. 18A): did not significantly change mIPSC amplitudes
